Measured values published in ChEMBL document CHEMBL1136947, “Exploration of novel thiobarbituric acid-, rhodanine- and thiohydantoin-based HIV-1 integrase inhibitors” (Bioorg Med Chem Lett, 2009).

What was measured:
[1] = test system: Human immunodeficiency virus 1; assay: Antiviral activity against HIV1 3B infected in human MT4 cells assessed as reduction of virus-induced cytopathogenicity by MTT assay; format: functional, organism-based; details: Human immunodeficiency virus 1, 3B
[2] = Cytotoxicity against human MT4 cells by MTT method; format: cell-based
[3] = biological target: T1, Human immunodeficiency virus type 1 integrase (Human immunodeficiency virus 1, UniProt Q7ZJM1); assay: Inhibition of HIV1 integrase 3'-processing activity using labelled oligonucleotide substrate by ELISA
T1 sequence (Q7ZJM1 whole entry): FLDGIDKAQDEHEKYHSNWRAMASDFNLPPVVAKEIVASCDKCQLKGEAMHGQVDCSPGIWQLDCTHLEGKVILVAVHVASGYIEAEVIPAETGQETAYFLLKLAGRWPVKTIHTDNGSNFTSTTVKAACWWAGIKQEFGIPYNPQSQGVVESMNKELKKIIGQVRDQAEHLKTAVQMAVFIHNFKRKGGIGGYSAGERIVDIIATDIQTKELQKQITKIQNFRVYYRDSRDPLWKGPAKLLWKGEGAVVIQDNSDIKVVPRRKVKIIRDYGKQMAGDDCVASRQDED

[4] = biological target: T1, Human immunodeficiency virus type 1 integrase; assay: Inhibition of HIV1 integrase using labelled oligonucleotide substrate by ELISA
[5] = Therapeutic index, ratio of CC50 for human MT4 cells to EC50 for HIV1 3B; format: cell-based; details: read-out: Ratio CC50/EC50
[6] = biological target: T1, Human immunodeficiency virus type 1 integrase; assay: Inhibition of HIV1 integrase strand transfer activity using labelled oligonucleotide substrate by ELISA

Row | SMILES | EC50 [1] [µM] | CC50 [2] [µM] | IC50 [3] [µM] | IC50 [4] [µM] | selectivity ratio [5] | IC50 [6] [µM]
1 | COc1cc(C(=O)O)cc(OC)c1-c1ccc(C=C2C(=O)NC(=S)NC2=O)o1 | > 61.1 | 61.1 | > 250 | 167 | – | –
2 | Cc1ccc(C(=O)O)cc1-c1ccc(C=C2C(=O)NC(=S)NC2=O)o1 | > 159 | 159 | 25.4 | 46.4 | – | –
3 | Cc1c(-c2ccc(C=C3C(=O)NC(=S)NC3=O)o2)cccc1[N+](=O)[O-] | > 17.9 | 17.9 | 40.8 | 58.4 | – | –
4 | O=C1NC(=S)N/C1=C\c1ccc(-c2ccc(O)c(C(=O)O)c2)o1 | 95.2 | 152 | > 250 | 50.9 | 2 | > 250
5 | Cc1cc(-c2ccc(C(=O)O)c(O)c2)oc1C=C1C(=O)NC(=S)NC1=O | > 125 | > 125 | 125 | 90.9 | – | –
6 | O=C1NC(=S)NC(=O)C1=Cc1ccc(-c2ccc(O)c(C(=O)O)c2)o1 | > 222 | 222 | 53 | 33.4 | – | –
7 | O=C1NC(=S)S/C1=C\c1ccc(-c2ccc(C(=O)O)c(O)c2)o1 | 30.1 | > 72 | > 250 | 182 | 2 | 97.7
8 | O=C1NC(=S)NC(=O)C1=Cc1ccc(-c2ccc(Cl)c(C(=O)O)c2)o1 | > 152 | 152 | 12.9 | 41.7 | – | –
9 | COc1cc(-c2ccc(/C=C3\SC(=S)NC3=O)o2)c(Cl)cc1C(=O)O | > 143 | 143 | > 250 | > 250 | – | –
10 | O=C1NC(=S)S/C1=C\c1ccc(-c2cc(C(=O)O)cc(O)c2O)o1 | 18 | 131 | 22.3 | 15.5 | 7 | 164
11 | Cc1cc(-c2ccc(C(=O)O)c(O)c2)oc1/C=C1\NC(=S)NC1=O | – | – | > 250 | > 250 | – | –
12 | O=C1NC(=S)NC(=O)C1=Cc1ccc(-c2cccc(C(=O)O)c2O)o1 | > 140 | 140 | > 250 | > 250 | – | –
13 | O=C1NC(=S)NC(=O)C1=Cc1ccc(-c2cc(C(=O)O)cc(O)c2O)o1 | 54.7 | 138 | 5.79 | 5.06 | 3 | > 250
14 | O=C1NC(=S)NC(=O)C1=Cc1ccc(-c2cc(C(=O)O)cc3c2OCO3)o1 | > 125 | > 125 | 71.6 | 56.5 | – | –
15 | Cc1nnc(C(=O)NC(C)(C)c2nc(C(=O)NCc3ccc(F)cc3)c(O)c(=O)n2C)o1 | 0.0064 | 143 | – | – | – | –
16 | COc1cc(-c2ccc(C=C3C(=O)NC(=S)NC3=O)o2)c(Cl)cc1C(=O)O | > 100 | 100 | 35.3 | 43.2 | – | –
17 | O=C1NC(=S)N/C1=C\c1ccc(-c2ccc(C(=O)O)c(O)c2)o1 | > 193 | 193 | 74 | 107 | – | –
18 | O=C1NC(=S)NC(=O)C1=Cc1ccc(-c2ccc(C(=O)O)c(O)c2)o1 | 30 | 60 | 2.74 | 8.94 | 2 | 69.2
19 | O=C1NC(=S)S/C1=C\c1ccc(-c2ccc(Cl)c(C(=O)O)c2)o1 | > 155 | 155 | > 250 | > 250 | – | –
20 | Cc1cc(-c2ccc(C(=O)O)c(O)c2)oc1/C=C1\SC(=S)NC1=O | – | – | 135 | 158 | – | –
21 | O=C1NC(=S)NC(=O)C1=Cc1ccc(-c2ccc(F)cc2C(=O)O)o1 | > 165 | 165 | 47.1 | 184 | – | –
22 | COc1cc(-c2ccc(C(=O)O)c(O)c2)oc1/C=C1\SC(=S)NC1=O | 112 | > 125 | > 250 | > 250 | – | –
